Laboratory results from PubChem BioAssay AID1996.
≈ marks a conversion by molar mass, not a printed value.

Conditions: buffer; pH 7.4; 200.0 µM

**Q.** For O=C(c1ccccc1[N+](=O)[O-])N1CCCC(C(=O)N2CCCCCC2)C1 (centres undefined), which solubility kinetic is on record?
**A.** 53 µg/mL (≈ 147 µM)

**Q.** Which solubility kinetic does the source give for O=C(NCC1CCCO1)C1CCCN1C(=O)Nc1ccc(Cl)cc1 (centres undefined) here?
**A.** > 52.8 µg/mL

**Q.** For CC(C)C(NC(=O)c1ccc(F)cc1)C(=O)N1CCN(c2ccccn2)CC1 (centres undefined), which solubility kinetic is on record?
**A.** 25.8 µg/mL (≈ 67.1 µM)

**Q.** For O=C(CN1CCCC1)Nc1ccccc1Sc1ccc(Cl)cc1, which solubility kinetic is on record?
**A.** 8.6 µg/mL (≈ 24.8 µM)

**Q.** Which solubility kinetic does the source give for O=C(N1CCCCC1)N1CCN(S(=O)(=O)c2ccccc2)CC1 here?
**A.** > 50.6 µg/mL

**Q.** With COc1ccc(CNC(=O)C2CCN(C(=O)Cc3ccccc3)CC2)cc1 as the compound, how does the solubility kinetic read?
**A.** > 55 µg/mL

**Q.** Which solubility kinetic does the source give for Cc1ccc(C(O)(CCN2CCCCC2)c2ccccc2)cc1.Cl (centres undefined) here?
**A.** > 51.9 µg/mL

**Q.** With CCN(c1ccccc1)S(=O)(=O)c1csc(C(N)=O)c1 as the compound, how does the solubility kinetic read?
**A.** 44.3 µg/mL (≈ 143 µM)

**Q.** With COc1ccc(NS(=O)(=O)c2cc(C(=O)NNC(=O)c3ccncc3)ccc2OC)c(OC)c1 as the compound, how does the solubility kinetic read?
**A.** > 73 µg/mL

**Q.** Which solubility kinetic does the source give for CCN(CC(=O)Nc1ccc2c(c1)OCCO2)C(=O)/C=C/c1cccc(C(F)(F)F)c1 here?
**A.** 3.6 µg/mL (≈ 8.29 µM)

**Q.** For COc1cc(CNc2ccc3[nH]c(=O)[nH]c3c2)ccc1OCC(=O)NC(C)(C)C, which solubility kinetic is on record?
**A.** 52.3 µg/mL (≈ 131 µM)

**Q.** For Cc1ccc(CC2CC(=O)N(c3nc(C)cc(C)n3)C2=O)cc1 (centres undefined), which solubility kinetic is on record?
**A.** > 46.4 µg/mL

**Q.** For CC(=O)c1ccc2c(c1)c(C#N)c1ccccc1[n+]2[O-], which solubility kinetic is on record?
**A.** 1.7 µg/mL (≈ 6.48 µM)

**Q.** With Cc1ncc(CN2CCCC(C(=O)c3cccc(Cl)c3)C2)s1 (centres undefined) as the compound, how does the solubility kinetic read?
**A.** 43.2 µg/mL (≈ 129 µM)

**Q.** For COc1ccc(OCCC(=O)OCC(=O)NCCC2=CCCCC2)cc1, which solubility kinetic is on record?
**A.** > 54.2 µg/mL

**Q.** For CC12CCC(C1)C(C)(C)C2NS(=O)(=O)c1ccc(F)cc1 (centres undefined), which solubility kinetic is on record?
**A.** 6.9 µg/mL (≈ 22.2 µM)

**Q.** For Oc1cccc2ccc(N3CCOCC3)nc12, which solubility kinetic is on record?
**A.** > 34.5 µg/mL

**Q.** For Cc1ccc(S(=O)(=O)N2CCN(Cc3ccccc3)CC2)cc1, which solubility kinetic is on record?
**A.** 5 µg/mL (≈ 15.1 µM)

**Q.** Which solubility kinetic does the source give for CN(C)CC/C=C1/c2ccc(F)cc2Sc2ccc(Cl)cc21.Cl here?
**A.** 26.1 µg/mL

**Q.** With CC(C)[C@H](NC(=O)NC1CCN(Cc2ccccc2)CC1)C(=O)O as the compound, how does the solubility kinetic read?
**A.** 19.8 µg/mL (≈ 59.4 µM)

**Q.** For O=C(CCCCN1CCCCC1)c1ccc2c(c1)Cc1ccccc1-2, which solubility kinetic is on record?
**A.** 6.6 µg/mL (≈ 19.8 µM)

**Q.** Which solubility kinetic does the source give for CCOC(=O)C1=C(c2ccccc2)NC(=O)NC1c1ccsc1 (centres undefined) here?
**A.** 43.9 µg/mL (≈ 134 µM)

**Q.** For CC(C)(C)C(=O)Nc1ccc(-c2cc3cc(Cl)ccc3o2)cc1, which solubility kinetic is on record?
**A.** 0.8 µg/mL (≈ 2.44 µM)

**Q.** For N#Cc1c(N)n(-c2ccc(C(=O)O)cc2)c2nc3ccccc3nc12, which solubility kinetic is on record?
**A.** 28.5 µg/mL (≈ 86.5 µM)

**Q.** With NS(=O)(=O)c1ccc(N=Cc2c(O)c3ccccc3oc2=O)cc1 as the compound, how does the solubility kinetic read?
**A.** 19.9 µg/mL (≈ 57.8 µM)

**Q.** With Cc1cc(C)c(NC(=S)N(CCc2ccncc2)C(C)C)c(C)c1 as the compound, how does the solubility kinetic read?
**A.** 48.8 µg/mL (≈ 143 µM)

**Q.** With CCOC(=O)c1c(C)n(C)c2c1cc(OC(C)=O)c1ccccc12 as the compound, how does the solubility kinetic read?
**A.** < 0.7 µg/mL

**Q.** For CN1C(=S)SC(/[N+]([O-])=C/c2ccc(Cl)cc2)C1(C)C (centres undefined), which solubility kinetic is on record?
**A.** 15.7 µg/mL (≈ 49.9 µM)

**Q.** With Cc1cccc(C(=O)NCC(c2ccco2)N2CCc3ccccc32)c1 (centres undefined) as the compound, how does the solubility kinetic read?
**A.** 8.2 µg/mL (≈ 23.7 µM)

**Q.** For Brc1cnc2nc[nH]c2c1, which solubility kinetic is on record?
**A.** > 29.7 µg/mL

**Q.** With Cc1cccc(NC(=O)N2C[C@H]3C[C@@H](C2)c2cccc(=O)n2C3)c1 as the compound, how does the solubility kinetic read?
**A.** > 48.5 µg/mL

**Q.** With CCOC(Cn1cc(C)c(=O)[nH]c1=O)OCC as the compound, how does the solubility kinetic read?
**A.** > 36.3 µg/mL

**Q.** Which solubility kinetic does the source give for CC(=O)c1c(COC(=O)c2ccc(Cl)cc2)nc2ccccc2[n+]1[O-] here?
**A.** 0.6 µg/mL (≈ 1.68 µM)

**Q.** For O=C(CSc1ccc(Cl)cc1)NC(=O)c1ccccc1, which solubility kinetic is on record?
**A.** 6.4 µg/mL (≈ 20.9 µM)

**Q.** For O=C(CN1C(=O)C(=O)N(C2CCCC2)C1=O)Nc1cc(Cl)ccc1[N+](=O)[O-], which solubility kinetic is on record?
**A.** 26.6 µg/mL (≈ 67.4 µM)

**Q.** Which solubility kinetic does the source give for CCC1CCCCN1Cc1c(O)ccc2c(=O)c(-c3ccccc3OC)coc12 (centres undefined) here?
**A.** 51.3 µg/mL (≈ 130 µM)

**Q.** Which solubility kinetic does the source give for COCCCNc1nc2ccccc2[nH]c1=O here?
**A.** > 35 µg/mL

**Q.** For Cc1ncc(CN2CCN(C3CCCC3)C(CCO)C2)s1 (centres undefined), which solubility kinetic is on record?
**A.** 36 µg/mL (≈ 116 µM)

**Q.** With Cc1ccc(SCC(=O)NC2CCCCCC2)cc1 as the compound, how does the solubility kinetic read?
**A.** > 41.6 µg/mL

**Q.** Which solubility kinetic does the source give for O=C(Nc1nnc(-c2ccco2)o1)c1ccc(N2C(=O)CCC2=O)cc1 here?
**A.** > 52.8 µg/mL

**Q.** With CCC(=O)Nc1cccc(-c2nc3ccc(C)cc3o2)c1 as the compound, how does the solubility kinetic read?
**A.** 1.6 µg/mL (≈ 5.71 µM)

**Q.** For CC(=O)Nc1nc2c(s1)C(=O)NCC(C)(C)C2, which solubility kinetic is on record?
**A.** > 38 µg/mL

**Q.** With COc1ccc(NC(=O)c2cc(-c3ccco3)on2)cc1OC as the compound, how does the solubility kinetic read?
**A.** 1.6 µg/mL (≈ 5.09 µM)

**Q.** With Cc1cc(Oc2ccc(N)cn2)ccc1Cl as the compound, how does the solubility kinetic read?
**A.** 30.8 µg/mL (≈ 131 µM)

**Q.** Which solubility kinetic does the source give for Cc1cccc(NC(=O)Cn2cc(C=O)c3ccccc32)c1 here?
**A.** 0.9 µg/mL (≈ 3.08 µM)

**Q.** With FC(F)(F)c1ccccc1-n1ccnc1 as the compound, how does the solubility kinetic read?
**A.** 30.2 µg/mL (≈ 142 µM)

**Q.** For Cc1noc(C)c1CN1C(=O)c2cccc([N+](=O)[O-])c2C1=O, which solubility kinetic is on record?
**A.** > 45.2 µg/mL

**Q.** With O=C(Nn1cnc2ccccc2c1=O)c1ccccc1F as the compound, how does the solubility kinetic read?
**A.** > 42.5 µg/mL

**Q.** Which solubility kinetic does the source give for Oc1ccc2ccccc2c1CNc1ccc(Br)cn1 here?
**A.** 1.9 µg/mL (≈ 5.77 µM)

**Q.** Which solubility kinetic does the source give for CC(=O)N(C)c1ccc(NC(=O)Cc2cccc3ccccc23)cc1 here?
**A.** 3.9 µg/mL (≈ 11.7 µM)

**Q.** Which solubility kinetic does the source give for Cc1nc2ccc(NC(=O)Cc3ccccc3F)cc2s1 here?
**A.** 8 µg/mL (≈ 26.6 µM)

**Q.** Which solubility kinetic does the source give for CC(Sc1nnc(N)s1)C(=O)Nc1nccs1 (centres undefined) here?
**A.** > 43.1 µg/mL

**Q.** With CC1NCCC2(O)CCCCC12 (centres undefined) as the compound, how does the solubility kinetic read?
**A.** > 25.4 µg/mL

**Q.** Which solubility kinetic does the source give for N#CC1=C(N)Oc2cc(O)c(Cl)cc2C1c1cccnc1 (centres undefined) here?
**A.** 11.2 µg/mL (≈ 37.4 µM)

**Q.** With CCN(C(=O)c1ccc(=O)n(C)n1)c1c(N)n(Cc2ccccc2)c(=O)[nH]c1=O as the compound, how does the solubility kinetic read?
**A.** > 59.5 µg/mL

**Q.** For Cc1cc(C)c(NC(=S)NCCCSC2CCCCC2)c(C)c1, which solubility kinetic is on record?
**A.** 6.1 µg/mL (≈ 17.4 µM)

**Q.** For COc1ccc(CNC(=O)c2cc(=O)c3cc(C)c(C)cc3o2)cc1, which solubility kinetic is on record?
**A.** < 0.7 µg/mL

**Q.** With CSc1nsc(SC)c1C(=O)Nc1ccc(C(C)(C)C)cc1 as the compound, how does the solubility kinetic read?
**A.** < 0.4 µg/mL

**Q.** For O=C(/C=C/c1cccc([N+](=O)[O-])c1)N1CC[C@@]2(O)CCCC[C@H]2C1, which solubility kinetic is on record?
**A.** > 49.6 µg/mL
